# Where two headings read alike, the source gives them in different places.
# Columns and labels:
# [1] = Study B: 17-AAG pharmacokinetics in subcutaneous interstitial fluid (tissue cages, HPLC); format: in vivo; details: dogs; for AUC(0-t) / Cmax / half-life: both sexes, dog, subcutaneous interstitial fluid, iv, mean ± SD; for half-life: read-out: t ½ (converted)
# Experimental: Study B involved 9 healthy dogs (8 females and 1 male), including the 4 females from Study A after wash-out and upon confirmation of regular laboratory evaluations. […] Tolerability evaluations were performed via clinical examinations and blood sampling for laboratory evaluation after each treatment. For toxicity assessments, 4, 6, and 8 h after the final administration, the animals were euthanized for tissue collection and histopathological evaluation.
# In Study B, samples of interstitial fluid were collected from tissue cages implanted subcutaneously in the dogs. These cages were prepared based on a protocol previously described by Stegemann et al.. They were made from non-toxic, siliconized, flexible, non-irritant PVC tubes with dimensions of 3.5 cm long, an internal diameter of 3 mm, and an external diameter of 5 mm. Three autoclaved cages were surgically implanted between the scapula of each animal under sedation (xylazine 2%, Syntec, Tambore, SP, Brazil) and local anesthesia (lidocaine 2% and epinephrine 0.002%, Syntec). Before and after surgical procedures, antibiotics (enrofloxacin–5 mg/Kg, Syntec) and an anti-inflammatory (ketoprofen 1%–1 mL/Kg, CEVA, Paulínia, SP, Brazil) drug were administered. To allow animals to heal, as well as the formation of the granulation tissue around the cages, a recovery time of 10 days after surgery was considered. The subcutaneous interstitial fluid was collected by percutaneous puncture using a 21 G needle and 20 mL syringe.
# For the mobile phase, acetonitrile (ACN, J.T.Baker®, Philadelphia, PA, USA) and water with 1% acetic acid (J.T.Baker®)were used. Briefly, aliquots of 200 µL of plasma or 100 µL of subcutaneous interstitial liquid were placed in a 1.5 mL microcentrifuge tube. Subsequently, 600 µL and 300 µL of ACN were added to all plasma and subcutaneous interstitial liquid samples, respectively. The mixture was vortexed for 30 s, followed by centrifugation at 3400× g for 10 min. Next, 500 µL of the plasma supernatant and 250 µL of the subcutaneous interstitial fluid were pipetted into a new vial. The method was validated in accordance with the International Council for Harmonization (ICH) technical requirements for the evaluation of medicinal products. […] No matrix interferences were observed. Two calibrated plasma curves of 17-AAG were validated with different injection volumes. […] Data acquisition and processing were performed using LabSolutions software (Version 5.3).
# Cmax, half-life (t ½), distribution volume, and clearance were also determined. Data were analyzed in Excel and WinNonlin using a mono-compartmental model.
# healthy dogs = test: Study A dose-escalation protocol: tolerability, side and adverse effects; details: for Animals with increases in AST in plasma: reversible
# From the text: Control animals were the same dogs that, prior to treatment, received an intravenous injection of the placebo solution. After that, samples were collected for hematological and biochemical analyses, as described in Section 4.2, “Animal Selection and Care Procedures”.
# Blood samples were collected for hematological (hemogram) and biochemical analyses, as described in Section 4.2, “Animal Selection and Care Procedures”. This study utilized a 6-step dose-escalation design for the treated dogs. […] Wash-out periods, ranging from 7 to 10 days, were observed between each dosage step. […] Blood samples were collected at various times, as specified in Section 4.4.1, “Peripheral Blood Sample Collection”. […] Peripheral blood samples for hematological and biochemical analyses were collected on days 2, 4, 7, and 10 [105].
# Two separate clinical reports were used to document data obtained from clinical evaluations. A general clinical description was used to note the following information daily: whether the animal was alert, prostrate, depressed, apathetic or aggressive, drinking water, and eating food normally, as well as feces and urine evaluations and the presence of vomit. Every two days, we noted the following parameters: body temperature (°C, measured using a rectal thermometer), heart rate (beats/minute), respiratory rate (cycles/minute), external mucous membrane coloration (conjunctiva and oral), hydration (skin elasticity), superficial lymph node enlargement (submandibular and popliteal), stool consistency, presence of lesions or secretions in the eyes, presence of nasal secretion (quantity and type), coat status, presence of skin lesions and ectoparasites, temperament, presence of claudication, and coordination and balance. Hemograms were performed following blood collection. The following biochemical analyses were performed: total proteins, albumin (A), globulins (Gs), A/G ratio, total cholesterol, bilirubin, renal profile (urea and creatinine), and hepatic enzymatic profiles (ALP, ALT, AST, AF, and GGT).
# [2] = Study A, healthy dogs n = 4, single IV dose 50 mg/m^2
# [3] = Study A, healthy dogs n = 4, single IV dose 100 mg/m^2
# [4] = Study A, healthy dogs n = 4, single IV dose 150 mg/m^2
# [5] = Study A, healthy dogs n = 4, single IV dose 200 mg/m^2
# [6] = Study A, healthy dogs n = 4, single IV dose 250 mg/m^2
smiles,measurement,setting,value
"C=CCNC1=C2C[C@@H](C)C[C@H](OC)[C@H](O)[C@@H](C)/C=C(\C)[C@H](OC(N)=O)[C@@H](OC)/C=C\C=C(/C)C(=O)NC(=CC1=O)C2=O [17-AAG, 17-(allylamino)-17-demethoxygeldanamycin]",Concentration in subcutaneous interstitial fluid (tissue cages),"[1]; Study B, 150 mg/m^2 IV, at all times evaluated / at 48 h intervals",~100 ng/mL
same,AUC(0-t),"[1]; 150 mg/m2, AUC 0–8 h, Study B, 1st administration of 150 mg/m^2 IV",2660 ± 437 ng·h/mL
same,AUC(0-t),"[1]; 150 mg/m2, AUC 0–8 h, Study B, 2nd administration of 150 mg/m^2 IV",2910 ± 686 ng·h/mL
same,AUC(0-t),"[1]; 150 mg/m2, AUC 0–8 h, Study B, 3rd administration of 150 mg/m^2 IV",2730 ± 1440 ng·h/mL
same,Cmax,"[1]; 150 mg/m2, Study B, 1st administration of 150 mg/m^2 IV",704 ± 332 ng/mL
same,Cmax,"[1]; 150 mg/m2, Study B, 2nd administration of 150 mg/m^2 IV",736 ± 294 ng/mL
same,Cmax,"[1]; 150 mg/m2, Study B, 3rd administration of 150 mg/m^2 IV",726 ± 401 ng/mL
same,AUC(0-t),"[1]; 150 mg/m2, Study B, 1st administration of 150 mg/m^2 IV, read-out: AUC 0–4 h",1820 ± 430 ng·h/mL
same,AUC(0-t),"[1]; 150 mg/m2, Study B, 1st administration of 150 mg/m^2 IV, read-out: AUC 0–6 h",2300 ± 409 ng·h/mL
same,AUC(0-t),"[1]; 150 mg/m2, Study B, 1st administration of 150 mg/m^2 IV, read-out: AUC 0–24 h",4760 ± 333 ng·h/mL
same,AUC(0-t),"[1]; 150 mg/m2, Study B, 1st administration of 150 mg/m^2 IV, read-out: AUC 0–47.5 h",7380 ± 1360 ng·h/mL
same,half-life,"[1]; 150 mg/m2, Study B, 1st of three IV administrations of 150 mg/m^2 at 48 h intervals",38 ± 16 h
same,AUC(0-t),"[1]; 150 mg/m2, Study B, 2nd administration of 150 mg/m^2 IV, read-out: AUC 0–4 h",1940 ± 618 ng·h/mL
same,AUC(0-t),"[1]; 150 mg/m2, Study B, 2nd administration of 150 mg/m^2 IV, read-out: AUC 0–6 h",2550 ± 638 ng·h/mL
same,AUC(0-t),"[1]; 150 mg/m2, Study B, 2nd administration of 150 mg/m^2 IV, read-out: AUC 0–24 h",4070 ± 700 ng·h/mL
same,AUC(0-t),"[1]; 150 mg/m2, Study B, 2nd administration of 150 mg/m^2 IV, read-out: AUC 0–47.5 h",7050 ± 2190 ng·h/mL
same,half-life,"[1]; 150 mg/m2, Study B, 2nd of three IV administrations of 150 mg/m^2 at 48 h intervals",28 ± 9 h
same,AUC(0-t),"[1]; 150 mg/m2, Study B, 3rd administration of 150 mg/m^2 IV, read-out: AUC 0–4 h",895 ± 408 ng·h/mL
same,AUC(0-t),"[1]; 150 mg/m2, Study B, 3rd administration of 150 mg/m^2 IV, read-out: AUC 0–6 h",2040 ± 1100 ng·h/mL
same,AUC(0-t),"[1]; 150 mg/m2, Study B, 3rd administration of 150 mg/m^2 IV, read-out: AUC 0–24 h",3500 ± 2420 ng·h/mL
same,Dogs with bloody diarrhea,"healthy dogs; Study A, 200 mg/m^2",75%
same,Dogs with bloody diarrhea,"healthy dogs; Study A, 250 mg/m^2",100%
same,Animals presenting nausea during administration,"healthy dogs; Study A, dogs, 200 mg/m^2",all four animals
same,Animals presenting nausea during administration,"healthy dogs; Study A, dogs, 250 mg/m^2",all four animals
same,Animals with ALT alteration,healthy dogs; [2],1 (25%) N (%)
same,Animals with AST alteration,healthy dogs; [2],0 N (%)
same,Animals with bloody diarrhea,healthy dogs; [2],0 N (%)
same,Animals with diarrhea (pasty feces),healthy dogs; [2],0 N (%)
same,Animals with erythema,healthy dogs; [2],0 N (%)
same,Animals with hyperthermia,healthy dogs; [2],0 N (%)
same,Animals with nausea,healthy dogs; [2],0 N (%)
same,Animals with pruritus,healthy dogs; [2],0 N (%)
same,Animals with vomit,healthy dogs; [2],0 N (%)
same,Animals with ALT alteration,healthy dogs; [3],2 (50%) N (%)
same,Animals with AST alteration,healthy dogs; [3],2 (50%) N (%)
same,Animals with bloody diarrhea,healthy dogs; [3],0 N (%)
same,Animals with diarrhea (pasty feces),healthy dogs; [3],1 (25%) N (%)
same,Animals with erythema,healthy dogs; [3],0 N (%)
same,Animals with hyperthermia,healthy dogs; [3],0 N (%)
same,Animals with nausea,healthy dogs; [3],0 N (%)
same,Animals with pruritus,healthy dogs; [3],0 N (%)
same,Animals with vomit,healthy dogs; [3],0 N (%)
same,Animals with ALT alteration,healthy dogs; [4],3 (75%) N (%)
same,Animals with AST alteration,healthy dogs; [4],2 (50%) N (%)
same,Animals with bloody diarrhea,healthy dogs; [4],0 N (%)
same,Animals with diarrhea (pasty feces),healthy dogs; [4],1 (25%) N (%)
same,Animals with erythema,healthy dogs; [4],1 (25%) N (%)
same,Animals with hyperthermia,healthy dogs; [4],1 (25%) N (%)
same,Animals with nausea,healthy dogs; [4],0 N (%)
same,Animals with pruritus,healthy dogs; [4],1 (25%) N (%)
same,Animals with vomit,healthy dogs; [4],0 N (%)
same,Animals with ALT alteration,healthy dogs; [5],3 (75%) N (%)
same,Animals with AST alteration,healthy dogs; [5],4 (100%) N (%)
same,Animals with bloody diarrhea,healthy dogs; [5],3 (75%) N (%)
same,Animals with diarrhea (pasty feces),healthy dogs; [5],1 (25%) N (%)
same,Animals with erythema,healthy dogs; [5],2 (50%) N (%)
same,Animals with hyperthermia,healthy dogs; [5],0 N (%)
same,Animals with nausea,healthy dogs; [5],4 (100%) N (%)
same,Animals with pruritus,healthy dogs; [5],3 (75%) N (%)
same,Animals with vomit,healthy dogs; [5],1 (25%) N (%)
same,Animals with ALT alteration,healthy dogs; [6],4 (100%) N (%)
same,Animals with AST alteration,healthy dogs; [6],4 (100%) N (%)
same,Animals with bloody diarrhea,healthy dogs; [6],4 (100%) N (%)
same,Animals with diarrhea (pasty feces),healthy dogs; [6],1 (25%) N (%)
same,Animals with erythema,healthy dogs; [6],4 (100%) N (%)
same,Animals with hyperthermia,healthy dogs; [6],1 (25%) N (%)
same,Animals with nausea,healthy dogs; [6],4 (100%) N (%)
same,Animals with pruritus,healthy dogs; [6],4 (100%) N (%)
same,Animals with vomit,healthy dogs; [6],1 (25%) N (%)
same,Animals with increases in AST in plasma,"healthy dogs; dogs, 100 mg/m^2",50%
same,Animals with increases in AST in plasma,"healthy dogs; dogs, 150 mg/m^2",50%
same,Animals with increases in AST in plasma,"healthy dogs; dogs, 200 mg/m^2",100%
same,Animals with increases in AST in plasma,"healthy dogs; dogs, 250 mg/m^2",100%
same,maximum tolerable dose,"healthy dogs; dogs, Study A, IV",150 mg/m^2

# From publication PMC11206245 (Pharmaceuticals, 2024)
